Experimental data reported in publication PMC5402281, “Functional, thermodynamics, structural and biological studies of in silico-identified inhibitors of Mycobacterium tuberculosis enoyl-ACP(CoA) reductase enzyme” (Scientific Reports, 2017).
Values joined by “and” are separate entries in the source; they are usually repeats but may differ in a detail not shown here. Equal values may be shown once.

Columns and labels:
[1] = biological target: T1, MtInhA:NADH binary complex (Mycobacterium tuberculosis, UniProt P9WGR1); test: biochemical; assay type: binding; conditions: for ΔG: estimated from ΔH and ΔS (Eq. 7); for ΔH / ΔS: van't Hoff analysis, 15–30 °C
T1 construct: made in house

[2] = biological target: T2, MtInhA (Mycobacterium tuberculosis, UniProt P9WGR1); test: MtInhA enzyme inhibition by steady-state kinetics (NADH oxidation at 340 nm); assay type: biochemical; conditions: for Ki: EI complex; for mode of inhibition with respect to NADH / mode of inhibition with respect to DD-CoA: Lineweaver-Burk plot
T2 construct: made in house
Method: In order to assess the relative potency of the compounds, inhibition studies were performed by steady-state kinetic studies using a UV-2550 UV/Visible spectrophotometer (Shimadzu^©), monitoring the NADH oxidation at 340 nm (εβ-NADH = […]), in the forward direction. Experiments were performed at 25 °C, in 100 mM Pipes pH 7.0 and were started with the addition of the 2.2 μM MtInhA to a total reaction volume of 500 μL, and monitoring the change in absorbance for 1 min. […] This is needed as IC50 and classical competitive, non-competitive and uncompetitive inhibition modes follow a rapid equilibrium process. Accordingly, MtInhA (2.2 μM) was pre-incubated with inhibitor (10 μM), aliquots were taken at different times and added to the reaction mixture containing NADH (60 μM) and DD-CoA (45 μM), and initial velocity measurements were plotted as a function of time of pre-incubation[6]. Control experiments were carried out pre-incubating MtInhA (2.2 μM) with DMSO (5%) in the absence of inhibitors, and initial velocity measured as a function of time of pre-incubation[6].
The IC50 value, which defines the concentration of inhibitor required to […], was calculated for each compound. The maximal rate for the enzyme reaction was determined in the absence of inhibitor, in the presence of fixed non-saturating concentration of NADH (60 μM ≅ Km) and DD-CoA (45 μM ≅ Km)[10][11][14]. The reaction velocity was analyzed as the percentage of inhibition as a function of inhibitor concentration and data were fitted to Eq 1.
The most promising compounds were further evaluated to assess the inhibition profile and to determine the inhibition constant (Ki). Initial rates were measured as a function of NADH concentration (10–160 μM) at fixed non-saturating DD-CoA concentration (45 μM) and fixed-varied inhibitor concentrations (0.5–120 μM). The Ki values towards NADH were calculated using the uncompetitive equation (Eq. 2) for compounds Labio_6 and Labio_16, in which [I] is the inhibitor concentration, [S] is the substrate concentration, Km and Vmax are, respectively, the Michaelis-Menten constant and maximum velocity, and Kii is the overall inhibition constant for the ESI complex. The Ki of Labio_03 was determined previously.
For compounds Labio_2, Labio_11, Labio_15 and Labio_17, the Ki values with respect to NADH were calculated using Eq. 3, which describes a non-competitive inhibition, where [I] is the inhibitor concentration, [S] is the substrate concentration, Km and Vmax are, respectively, the Michaelis-Menten constant and maximum velocity, Kii is the overall inhibition constant for the ESI complex and Kis is the overall inhibition constant for the EI complex.
Inhibition studies were also carried out in the presence of fixed non-saturating concentration of NADH (60 μM) and fixed-varied inhibitor concentrations (0.5–120 μM), when DD-CoA was the variable substrate (15–135 μM). For compounds Labio_2, Labio_6, and Labio_16, the inhibition constants for the DD-CoA substrate were determined using Eq. 3 for the non-competitive mode of inhibition. For compounds Labio_11, Labio_15 and Labio_17, the Ki for this substrate were calculated from data fitting to the equation for competitive inhibition (Eq. 4), in which [I] is the inhibitor concentration, [S] is the substrate concentration, Km and Vmax are, respectively, the Michaelis-Menten constant and maximum velocity, and Kis is the overall inhibition constant for the EI complex.

[3] = Ki DD-CoA Kis, varied DD-CoA 15–135 μM, fixed NADH 60 μM
[4] = varied NADH 10–160 μM, fixed DD-CoA 45 μM, ESI complex

T2 sequence (P9WGR1 whole entry, looked up): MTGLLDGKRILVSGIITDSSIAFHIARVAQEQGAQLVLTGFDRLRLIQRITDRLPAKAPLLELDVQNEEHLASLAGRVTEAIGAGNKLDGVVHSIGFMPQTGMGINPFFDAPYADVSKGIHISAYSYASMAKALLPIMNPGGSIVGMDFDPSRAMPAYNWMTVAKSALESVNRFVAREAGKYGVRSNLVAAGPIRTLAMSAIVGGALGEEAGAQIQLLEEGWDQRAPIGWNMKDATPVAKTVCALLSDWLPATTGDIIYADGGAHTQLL
T1 sequence (P9WGR1 whole entry, looked up, one chain of several): as the sequence (P9WGR1 whole entry, looked up) above

SMILES | Kd ([1]; 25 °C (298.15 K)) [µM] | ΔG [1] | ΔH [1] | ΔS [1] | IC50 [2] [µM] | Ki [2, 3] [µM] | Ki ([2]; Ki NADH Kis, varied NADH 10–160 μM, fixed DD-CoA 45 μM) [µM] | mode of inhibition with respect to NADH ([2]; fixed DD-CoA 45 μM) | mode of inhibition with respect to DD-CoA ([2]; fixed NADH 60 μM) | Ki NADH Kii [2, 4] [µM] | Kd ([1]; 15 °C) [µM] | Kd ([1]; 20 °C) [µM] | Kd ([1]; 30 °C) [µM] | Ki DD-CoA Kii ([2]; varied DD-CoA 15–135 μM, fixed NADH 60 μM, ESI complex) [µM]
CCOC(=O)c1ccc2nc(C)cc(Nc3ccc(N4CCCCC4)cc3)c2c1 [Labio_17] | 7.2 ± 0.5 | -7.1 ± 0.8 kcal/mol | -23.3 ± 1.9 kcal/mol | −54.5 ± 6.5 cal.mol^−1.K^−1 | 20 ± 3 | 6.3 ± 0.7 | 8 ± 3 | non-competitive | competitive | 8 ± 1 |  |  |  | 
Cc1ccccc1OCc1nc(-c2ccc(NC(=O)c3cccs3)cc2)no1 [Labio_16] | 1.5 ± 0.2 | -8.0 kcal/mol and -8.0 ± 3.6 kcal/mol | -9.4 kcal/mol and -9.4 ± 06 kcal/mol | −4.8 cal.mol^−1.K^−1 and −4.8 ± 2.2 cal.mol^−1.K^−1 | 24 ± 2 | 13 ± 1 |  | uncompetitive | non-competitive | 7 ± 1 | 0.9 ± 0.2 | 1.2 ± 0.1 | 2 ± 0.1 | 8 ± 3
